Measurements as given in PMC12332667, “Role of Structural Modifications in Peptidomimetic Compounds as Potential Antimicrobial Agents against Staphylococcus aureus and Streptococcus pyogenes: Balancing Bioavailability, Safety, and Antimicrobial Activity” (ACS Omega, 2025).
Values after ≈ are worked out from the molar mass of the structure shown. Values joined by “and” are separate entries in the source; they are usually repeats but may differ in a detail not shown here. Equal values may be shown once.

Experiments:
[1] = test system: immortalized human HaCaT keratinocytes; experiment: XTT cell proliferation assay, keratinocytes; type: cell-based
Summary of the method: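 Cells at 37 °C, 5% CO2 received peptidomimetics in serum-free HG-DMEM for 48 or 72 h; for 72 h, half the medium was renewed and peptide re-added at 48 h. XTT reagent was then incubated 4 h and absorbance read at 490 nm; Mann–Whitney U test, p ≤ 0.05.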

S. schleiferi c.i. = experiment: MIC/MBC broth microdilution, S. schleiferi; type: cell-based, Staphylococcus schleiferi
Summary of the method: (§1)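 Standard NCCLS broth microdilution in BHI broth, inoculum approx. 10^5 CFU/mL, serially diluted peptidomimetics, 18 h at 37 °C. MIC was the lowest concentration with no obvious growth (≥90% inhibition versus untreated); MBC was the lowest giving ≤3 colonies on subculture (≥99.9% kill).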

[2] = test system: K. pneumoniae ATCC 700603; experiment: MIC/MBC broth microdilution, K. pneumoniae; type: cell-based
Summary of the method: as §1

fibroblasts (46BR.1N) = experiment: LDH cytotoxicity test, fibroblasts; type: cell-based; conditions: 48 h; for cytotoxicity (LDH), in words: 50-150 μg/mL
Summary of the method: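 HaCaT keratinocytes and 46BR.1N fibroblasts, 5000 cells per well, grown 24 h, then exposed to peptidomimetics at 50, 100 and 150 μg/mL in serum-free medium for 48 h. LDH release in supernatant read at 450 nm, normalized to untreated (0%) and 1% Triton X-100 (maximal) controls.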

S. cohnii c.i. = experiment: MIC/MBC broth microdilution, S. cohnii; type: cell-based, Staphylococcus cohnii
Summary of the method: as §1

E. faecalis c.i. = experiment: MIC/MBC broth microdilution, E. faecalis; type: cell-based, Enterococcus faecalis
Summary of the method: as §1

S. mutans c.i. = experiment: MIC/MBC broth microdilution, S. mutans; type: cell-based, Streptococcus mutans
Summary of the method: as §1

P. aeruginosa ATCC 10145 = experiment: MIC/MBC broth microdilution, P. aeruginosa; type: cell-based
Summary of the method: as §1

S. agalactiae ATCC 27956 = experiment: MIC/MBC broth microdilution, S. agalactiae; type: cell-based, Streptococcus agalactiae; conditions: S. agalactiae
Summary of the method: as §1

[3] = Hydrophobicity by reverse-phase chromatography; type: physicochemical; conditions: acetonitrile content in the mobile phase at the retention time
Source text: Reverse-phase chromatography was employed to assess the hydrophobicity characteristics of the peptidomimetics. Hydrophobicity was quantified by determining the acetonitrile content in the mobile phase at the retention time of a peptidyl derivative (Table S2). The least hydrophobic compound (40% acetonitrile) was A-198, which aligns with the calculations of hydrophobicity by SwissADME and pkCSM (Table ). Next in the hydrophobicity sequence were A-197, A-220, A-219, A-174, and A-221, eluting with 42.5-43.9% of acetonitrile. Then there were followed by […], and A-179, with the acetonitrile percentage of 44.8-49.8. The compounds A-176, A-20, A-152, A-134, and A-210 needed over 50% of acetonitrile to be eluted from the column.

Question: Which results are given for CC(C)[C@@H](CNC(=O)C(=Cc1ccccc1)c1ccccc1)NC(=O)[C@H](CCCNC(=N)N)NC(=O)[C@H](CCCCNC(=N)N)NC(=O)OCc1ccccc1 [Compound A-192]?
Answer: proliferation relative to control at 100 and 150 μg/mL ([1]; XTT): 25%; proliferation relative to control at 50 μg/mL ([1]; XTT, 50 μg/mL): 50%; effect on proliferation, in words ([1]; XTT, 48 and 72 h, 0.01–150 μg/mL): negative impact; MBC (S. schleiferi c.i.; H2O): 256 µg/mL (≈ 333 µM); MIC (S. schleiferi c.i.; H2O): 256 µg/mL (≈ 333 µM); MBC (S. schleiferi c.i.; water additive DMSO): 256 µg/mL (≈ 333 µM); MIC (S. schleiferi c.i.; water additive DMSO): 256 µg/mL (≈ 333 µM); MBC (S. schleiferi c.i.; water additive EtOH): 256 µg/mL (≈ 333 µM); MIC (S. schleiferi c.i.; water additive EtOH): 256 µg/mL (≈ 333 µM); MIC ([2]; H2O): > 512 µg/mL; MIC ([2]; water additive DMSO): > 512 µg/mL; MIC ([2]; water additive EtOH): > 512 µg/mL; cytotoxicity (LDH), in words (fibroblasts (46BR.1N)): much lower; MBC (S. cohnii c.i.; H2O): 32 µg/mL (≈ 41.6 µM); MIC (S. cohnii c.i.; H2O): 16 µg/mL (≈ 20.8 µM); MBC (S. cohnii c.i.; water additive DMSO): 32 µg/mL (≈ 41.6 µM); MIC (S. cohnii c.i.; water additive DMSO): 32 µg/mL (≈ 41.6 µM); MBC (S. cohnii c.i.; water additive EtOH): 32 µg/mL (≈ 41.6 µM); MIC (S. cohnii c.i.; water additive EtOH): 16 µg/mL (≈ 20.8 µM); MIC (E. faecalis c.i.; H2O): > 512 µg/mL; MIC (E. faecalis c.i.; water additive DMSO): > 512 µg/mL; MBC (E. faecalis c.i.; water additive EtOH): 512 µg/mL (≈ 666 µM); MIC (E. faecalis c.i.; water additive EtOH): 256 µg/mL (≈ 333 µM); MIC (S. mutans c.i.; H2O): > 512 µg/mL; MIC (S. mutans c.i.; water additive DMSO): > 512 µg/mL; MIC (S. mutans c.i.; water additive EtOH): > 512 µg/mL; MBC (P. aeruginosa ATCC 10145; H2O): 256 µg/mL (≈ 333 µM); MIC (P. aeruginosa ATCC 10145; water additive EtOH): > 512 µg/mL; MIC (S. agalactiae ATCC 27956; H2O): 32 µg/mL (≈ 41.6 µM); MIC (S. agalactiae ATCC 27956; water additive EtOH): 32 µg/mL (≈ 41.6 µM); % AcCN (acetonitrile required for elution from the column) [3]: 44.8–49.8% and 48.7%

Question: Which “antiproliferative effect (decrease vs control)” value ([1]; up to 150 μg/mL, A-193 and A-179 after 48 h) does the source give for CC(C)[C@@H](CNC(=O)C(=Cc1ccccc1)c1ccccc1)NC(=O)[C@H](Cc1c[nH]cn1)NC(=O)[C@H](CCCCNC(=N)N)NC(=O)OCc1ccccc1 [Compound A-193] here?
Answer: over 50%

Question: What about the MBC (S. schleiferi c.i.; H2O) of the same molecule?
Answer: 32 µg/mL (≈ 42.7 µM)

Question: What about the MIC (S. schleiferi c.i.; H2O) of the same molecule?
Answer: 8 µg/mL (≈ 10.7 µM)

Question: And the MBC (S. schleiferi c.i.; water additive DMSO)?
Answer: 8 µg/mL (≈ 10.7 µM)

Question: And the MIC (S. schleiferi c.i.; water additive DMSO)?
Answer: 4 µg/mL (≈ 5.33 µM)

Question: What about the MBC (S. schleiferi c.i.; water additive EtOH) of the same molecule?
Answer: 32 µg/mL (≈ 42.7 µM)

Question: What about the MIC (S. schleiferi c.i.; water additive EtOH) of the same molecule?
Answer: 8 µg/mL (≈ 10.7 µM)

Question: And the MIC ([2]; H2O)?
Answer: > 512 µg/mL

Question: What about the MIC ([2]; water additive DMSO) of the same molecule?
Answer: > 512 µg/mL

Question: And the MIC ([2]; water additive EtOH)?
Answer: > 512 µg/mL

Question: What about the “cytotoxicity (LDH), in words” value (fibroblasts (46BR.1N)) of the same molecule?
Answer: cytotoxic only at a concentration of 150 μg/mL

Question: And the “concentration at which cytotoxic effect starts” value (fibroblasts (46BR.1N); LDH)?
Answer: 150 µg/mL

Question: And the MBC (S. cohnii c.i.; water additive DMSO)?
Answer: 256 µg/mL (≈ 341 µM)

Question: What about the MBC (E. faecalis c.i.; H2O) of the same molecule?
Answer: 512 µg/mL (≈ 683 µM)

Question: And the MIC (E. faecalis c.i.; H2O)?
Answer: 256 µg/mL (≈ 341 µM)

Question: What about the MIC (E. faecalis c.i.; water additive DMSO) of the same molecule?
Answer: 512 µg/mL (≈ 683 µM)

Question: What about the MBC (E. faecalis c.i.; water additive EtOH) of the same molecule?
Answer: 256 µg/mL (≈ 341 µM)

Question: What about the MBC (S. mutans c.i.; water additive DMSO) of the same molecule?
Answer: 16 µg/mL (≈ 21.3 µM)

Question: And the MIC (S. mutans c.i.; water additive DMSO)?
Answer: 8 µg/mL (≈ 10.7 µM)

Question: And the MBC (S. mutans c.i.; water additive EtOH)?
Answer: 16 µg/mL (≈ 21.3 µM)

Question: What about the MIC (S. mutans c.i.; water additive EtOH) of the same molecule?
Answer: 8 µg/mL (≈ 10.7 µM)

Question: What about the MIC (P. aeruginosa ATCC 10145; H2O) of the same molecule?
Answer: > 512 µg/mL

Question: What about the MIC (P. aeruginosa ATCC 10145; water additive DMSO) of the same molecule?
Answer: 512 µg/mL (≈ 683 µM)

Question: What about the MIC (P. aeruginosa ATCC 10145; water additive EtOH) of the same molecule?
Answer: > 512 µg/mL

Question: And the MIC (S. agalactiae ATCC 27956; water additive EtOH)?
Answer: 32 µg/mL (≈ 42.7 µM)

Question: What about the “% AcCN (acetonitrile required for elution from the column)” value [3] of the same molecule?
Answer: 49.0% and 44.8–49.8%
